Measured values published in article PMC7785020, “A unique hormonal recognition feature of the human glucagon-like peptide-2 receptor” (Cell Research, 2020).
Positions count from the first letter of the chain named.

Assays:
Parameters in all cases: WT (1–553); expressed in transfected cells
GLP-2R R242^ECL1A = molecular target: T1, GLP-2R R242^ECL1A (Homo sapiens, UniProt O95838, R242A); assay: radioligand competition binding, R242^ECL1A; details: COS-7, R242^ECL1A; [^125I]GLP-2(1–33, M10Y) 10–15 pM, 4 h, 4 °C; mean ± SEM, n ≥ 3 in duplicate
T1 sequence (O95838 1-553 R242A): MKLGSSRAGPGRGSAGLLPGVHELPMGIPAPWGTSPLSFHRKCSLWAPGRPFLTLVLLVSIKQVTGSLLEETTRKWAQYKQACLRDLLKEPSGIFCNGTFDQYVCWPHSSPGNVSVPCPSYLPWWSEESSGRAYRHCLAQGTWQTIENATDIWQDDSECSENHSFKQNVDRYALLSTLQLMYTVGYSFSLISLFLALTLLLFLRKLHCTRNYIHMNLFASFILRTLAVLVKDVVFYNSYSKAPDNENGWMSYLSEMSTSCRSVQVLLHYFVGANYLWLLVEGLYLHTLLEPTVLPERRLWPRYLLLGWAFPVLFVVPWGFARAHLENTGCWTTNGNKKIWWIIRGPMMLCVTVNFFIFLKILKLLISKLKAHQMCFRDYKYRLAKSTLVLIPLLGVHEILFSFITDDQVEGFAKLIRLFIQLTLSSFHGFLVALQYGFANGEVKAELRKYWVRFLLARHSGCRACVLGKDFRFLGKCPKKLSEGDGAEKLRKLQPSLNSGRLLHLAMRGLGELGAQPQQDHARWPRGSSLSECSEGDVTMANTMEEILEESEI
Procedure: (§1) A stepwise oxidation reaction was performed by addition of 6 aliquots of 5 µL ChloramineT (30 µL/mL) with a 1-min interval during constant stirring. The reaction was terminated by the addition of 400 µL phase A (0.1% trifluoracetic acid) before being fractionated into 1 mL volume by reverse-phase high-performance liquid chromatography (RP-HPLC, Waters 600 SimiPrep system) on a C18 column. The iodinated protein was […] by increasing concentrations of phase B (Acetonitrile + 0.1% TFA) and tested for competitive binding ability.
(§2) One day before transfection, the COS-7 cells were seeded in 75 cm^2 culture flasks (3 million cells/flask) in DMEM, containing 3.9 g/L NaHCO3 and supplemented with 10% FBS, 1% L-glutamine, 180 units/mL penicillin and 45 µg/mL streptomycin. After an overnight culture at 37 °C, 10% CO2 and 95% air humidity, the cells were transiently transfected with different GLP-2R constructs or pcDNA3.1 vector as previously described.[52] Following 24-h incubation, the cells were transferred to Costa® microtiter plates (150,000 cells/well, PerkinElmer) to achieve a 5%–10% specific binding. […] The cells were then washed twice in binding buffer (4 °C), lysed and counted for radioactivity using a Wallac Gamma Counter (PerkinElmer).

GLP-2R K231^2.67A = molecular target: T2, GLP-2R K231^2.67A (Homo sapiens, UniProt O95838, K231A); assay: radioligand competition binding, K231^2.67A; details: COS-7, K231^2.67A; [^125I]GLP-2(1–33, M10Y) 10–15 pM, 4 h, 4 °C; n ≥ 3 in duplicate
T2 sequence (O95838 1-553 K231A): T1 sequence (O95838 1-553 R242A) with K231A, A242R
Procedure: as §1, §2

GLP-2R N247^ECL1A = molecular target: T3, GLP-2R N247^ECL1A (Homo sapiens, UniProt O95838, N247A); assay: radioligand competition binding, N247^ECL1A; details: COS-7, N247^ECL1A; [^125I]GLP-2(1–33, M10Y) 10–15 pM, 4 h, 4 °C; mean ± SEM, n ≥ 3 in duplicate
T3 sequence (O95838 1-553 N247A): T1 sequence (O95838 1-553 R242A) with A242R, N247A
Procedure: as §1, §2

| SMILES | % Binding of WT (GLP-2R R242^ECL1A) [%] | % Binding of WT (GLP-2R K231^2.67A) | % Binding of WT (GLP-2R N247^ECL1A) [%] |
| --- | --- | --- | --- |
| CC[C@H](C)[C@H](NC(=O)[C@H](Cc1ccccc1)NC(=O)[C@H](CC(=O)O)NC(=O)[C@H](CCCNC(=N)N)NC(=O)[C@H](C)NC(=O)[C@H](C)NC(=O)[C@H](CC(C)C)NC(=O)[C@H](CC(N)=O)NC(=O)[C@H](CC(=O)O)NC(=O)[C@H](CC(C)C)NC(=O)[C@@H](NC(=O)[C@@H](NC(=O)[C@H](CC(N)=O)NC(=O)[C@H](CCSC)NC(=O)[C@H](CCC(=O)O)NC(=O)[C@H](CC(=O)O)NC(=O)[C@H](CO)NC(=O)[C@H](Cc1ccccc1)NC(=O)[C@H](CO)NC(=O)CNC(=O)[C@H](CC(=O)O)NC(=O)[C@H](C)NC(=O)[C@@H](N)Cc1c[nH]cn1)[C@@H](C)O)[C@@H](C)CC)C(=O)N[C@@H](CC(N)=O)C(=O)N[C@@H](Cc1c[nH]c2ccccc12)C(=O)N[C@@H](CC(C)C)C(=O)N[C@H](C(=O)N[C@@H](CCC(N)=O)C(=O)N[C@H](C(=O)N[C@@H](CCCCN)C(=O)N[C@H](C(=O)N[C@H](C(=O)N[C@@H](CC(=O)O)C(=O)O)[C@@H](C)O)[C@@H](C)CC)[C@@H](C)O)[C@@H](C)CC [Human GLP-2 (1–33)] | 4.2 ± 0.6 | N.B. | 130.7 ± 4.5 |
| CC[C@H](C)[C@H](NC(=O)[C@H](Cc1ccccc1)NC(=O)[C@H](CC(=O)O)NC(=O)[C@H](CCCNC(=N)N)NC(=O)[C@H](C)NC(=O)[C@H](C)NC(=O)[C@H](CC(C)C)NC(=O)[C@H](CC(N)=O)NC(=O)[C@H](CC(=O)O)NC(=O)[C@H](CC(C)C)NC(=O)[C@@H](NC(=O)[C@@H](NC(=O)[C@H](CC(N)=O)NC(=O)[C@H](CCSC)NC(=O)[C@H](CCC(=O)O)NC(=O)[C@H](CC(=O)O)NC(=O)[C@H](CO)NC(=O)[C@H](Cc1ccccc1)NC(=O)[C@H](CO)NC(=O)CNC(=O)[C@H](CC(=O)O)NC(=O)CNC(=O)[C@@H](N)Cc1c[nH]cn1)[C@@H](C)O)[C@@H](C)CC)C(=O)N[C@@H](CC(N)=O)C(=O)N[C@@H](Cc1c[nH]c2ccccc12)C(=O)N[C@@H](CC(C)C)C(=O)N[C@H](C(=O)N[C@@H](CCC(N)=O)C(=O)N[C@H](C(=O)N[C@@H](CCCCN)C(=O)N[C@H](C(=O)N[C@H](C(=O)N[C@@H](CC(=O)O)C(=O)O)[C@@H](C)O)[C@@H](C)CC)[C@@H](C)O)[C@@H](C)CC [Teduglutide] | 5.1 ± 1.5 | N.B. | 135.2 ± 4.4 |
